In patent publication US9321782B2, “Process for preparation of novel 42-O-(heteroalkoxyalkyl) rapamicin compounds with anti-proliferative properties” (MERIL LIFE SCIENCES PVT. LTD., priority 2010, dated 2016):
Values joined by “and” are separate entries in the source; they are usually repeats but may differ in a detail not shown here. Identical values can stand only once.

Assays:
rabbit blood [1] = test: Haemocompatibility test (thrombosis, coagulation, platelet count, leucocyte count); assay type: cell-based
Protocol: Haemocompatibility test is conducted to evaluate biological safety of the blood contacting 42-O-([…]) rapamycin and 42-O-(oxetan-3-yl) rapamycin compounds for the medical device. The interaction of test substance with rabbit blood was checked for thrombosis, coagulation, platelet count and leucocyte count.

[2] = Stability analysis (HPLC purity on storage) with various concentrations of BHT at 40° C.; assay type: physicochemical; conditions: sealed container
Protocol: (§1) To check the purity of the 42-O-(heteroalkoxyalkyl) rapamycin compounds the following condition was followed by using High Performance Liquid Chromatography, Phenomenex Synergi Hydro-RP 80a (250×4.6 ) mm, 4 micron column. The mobile phase was 65:15:20 methanol:acetonitile:water mixture. The detector was set at 276 nm and the flow rate was adjusted to 1.5 mL/min. Column temperature was 40° C. 2.0 μg of 42-O-(heteroalkoxyalkyl) rapamycin compounds was injected onto the column in a volume of 5.0 μL methanol with run time of 50 min.
The inventors have also conducted the stability study of various 42-O-(heteroalkoxyalkyl) rapamycin compounds as mentioned above using various BHT concentrations. The study was conducted at 40° C. temperature in sealed container for 8 weeks.
42-O-(heteroalkoxyalkyl) rapamycin compounds obtained as per procedure described in Example 1 are respectively added with anti-oxidant, namely Butylated Hydroxytoluene (or BHT), at a concentration of 0.1%, 0.2%, 0.5%, and 1.0% (w/w) based on 100% (w/w) of 42-O-(heteroalkoxyalkyl) rapamycin compounds in sealed container to study the stability at 40° C. temperature. […] The purity data with the addition of different amounts of anti-oxidant as added to 42-O-(tetrahydrofuran-3-yl) rapamycin compound, 42-O-(oxetan-3-yl) rapamycin compound and 42-O-(tetrahydropyran-3-yl) rapamycin compound checked at different time intervals are summarized in Table 2B as below mentioned.

[3] = test system: L-929 (ATCC cell lines CCL-1, NCTC clone 929) Mus musculus mouse fibroblast cells; test: In-vitro cytotoxicity test by extraction method; assay type: cell-based; conditions: extract in contact with L-929 cells for 48 hours
Protocol: In-vitro assessment was done to check the cytotoxic or necrotic potential of the 42-O-(tetrahydrofuran-3-yl) rapamycin and 42-O-(oxetan-3-yl) rapamycin compounds by extraction method. In this study extracts of test substance were kept in contact with a multiple culture of L-929 (ATCC cell lines CCL-1, NCTC clone 929) Mus musculus mouse fibroblast cells for 48 hours. The cells were examined microscopically to assess the changes for its general morphology, vacuolization, detachment, cell lysis and membrane integrity.

[4] = Stability analysis (HPLC purity on storage) without BHT at various temperatures; assay type: physicochemical; conditions: for Purity (%): without BHT
Protocol: as §1
The purity loss was higher at increased temperature, but there was no apparent change in the impurity profile. Table 2A presents the purity of various 42-O-(heteroalkoxyalkyl) rapamycin compounds at different time intervals and temperature conditions.

rabbit blood [5] = test: In-vitro haemolysis test; assay type: cell-based; conditions: for Haemolytic Index, Mean ± S. D.: mean of three test extracts, rabbit blood, 4 hrs
Protocol: Haemolysis test was conducted on rabbit blood by in-vitro method to check the haemolytic effect of 42-O-(tetrahydrofuran-3-yl) rapamycin (Merilimus-1) compound and 42-O-(oxetan-3-yl) rapamycin (Merilimus-2) compound. In this study the extracts of the test substances in triplicate were kept in contact with rabbit blood and incubated for 4 hrs. The concentration of plasma haemoglobin liberated in supernatant was calculated by comparing with absorbance of the standard solution in a spectrophotometer at 540 nm.

[6] = test system: rabbit illiac artery smooth muscle cell cultures (RbIASMCs); test: In-vitro anti-proliferative potency, BrdU assay, rabbit smooth muscle cells; assay type: cell-based; conditions: BrdU incorporation, over 5 orders of magnitude concentration, compared with rapamycin
Source text: (§2) In-vitro assessment of relative anti-proliferative effect of novel mTOR inhibitors 42-O-(oxetan-3-yl) rapamycin compound and 42-O-(tetrahydrofuran-3-yl) rapamycin compound with rapamycin was done on human and rabbit smooth muscle cell culture models. In which, human aorta and rabbit illiac artery smooth muscle cell cultures were subjected to increasing doses of 42-O-(oxetan-3-yl) rapamycin compound 42-O-(tetrahydrofuran-3-yl) rapamycin compound and rapamycin over 5 orders of magnitude concentration in the cell culture medium. The ability of the cell culture to reproduce was assessed after drug exposure by addition of a BromodeoxyUridine (BrdU) coloured reagent which causes a colour change in the surviving cells. The extent of colour development was quantified at 450 nm wavelength using a spectrophotometer microplate reader (BMG Labtech, FLUOstar OPTIMA). […] On the contrary, lower OD values reflect less incorporation on BrdU and a shift towards cell inhibition. Growth inhibition was calculated by subtracting positive control OD values, which represent 100% uninhibited growth.

[7] = test system: human aorta smooth muscle cell cultures (hAoSMCs); test: In-vitro anti-proliferative potency, BrdU assay, human smooth muscle cells; assay type: cell-based; conditions: BrdU incorporation, over 5 orders of magnitude concentration, compared with rapamycin
Source text: as §2

[8] = test group, individual rabbits No. 1-3

Haemocompatibility (in words) (rabbit blood [1]; all haematological findings compared to control): haemocompatible
Coagulation (PTT in sec.) (rabbit blood [1]; [8]): 36 sec. (2×) and 39 sec.
Differential leucocyte count: Basophile % (rabbit blood [1]; [8]): 00%
Differential leucocyte count: Eosinophil % (rabbit blood [1]; [8]): 01%
Differential leucocyte count: Lymphocyte % (rabbit blood [1]; [8]): 43% and 50% (2×)
Differential leucocyte count: Monocyte % (rabbit blood [1]; [8]): 01% (2×) and 02%
Differential leucocyte count: Neutrophil % (rabbit blood [1]; [8]): 55% and 47% and 48%
Distribution of cells: Platelets (rabbit blood [1]; [8]): Normal
Distribution of cells: RBC (rabbit blood [1]; [8]): Normal
Distribution of cells: WBC (rabbit blood [1]; [8]): Normal
Thrombosis (rabbit blood [1]; [8]): Nil
Purity (%) ([2]; BHT 0.0% (w/w), 0 week): 98.6%
Purity (%) ([2]; BHT 0.0% (w/w), 2 weeks): 96.7%
Purity (%) ([2]; BHT 0.0% (w/w), 4 weeks): 96.3%
Purity (%) ([2]; BHT 0.0% (w/w), 8 weeks): 94.7%
Purity (%) ([2]; BHT 0.1% (w/w), 0 week): 98.6%
Purity (%) ([2]; BHT 0.1% (w/w), 2 weeks): 98.5%
Purity (%) ([2]; BHT 0.1% (w/w), 4 weeks): 98.5%
Purity (%) ([2]; BHT 0.1% (w/w), 8 weeks): 98.4%
Purity (%) ([2]; BHT 0.2% (w/w), 0 week): 98.5%
Purity (%) ([2]; BHT 0.2% (w/w), 2 weeks): 98.5%
Purity (%) ([2]; BHT 0.2% (w/w), 4 weeks): 98.5%
Purity (%) ([2]; BHT 0.2% (w/w), 8 weeks): 98.4%
Purity (%) ([2]; BHT 0.5% (w/w), 0 week): 98.5%
Purity (%) ([2]; BHT 0.5% (w/w), 2 weeks): 98.4%
Purity (%) ([2]; BHT 0.5% (w/w), 4 weeks): 98.4%
Purity (%) ([2]; BHT 0.5% (w/w), 8 weeks): 98.3%
Purity (%) ([2]; BHT 1.0% (w/w), 0 week): 98.5%
Purity (%) ([2]; BHT 1.0% (w/w), 2 weeks): 98.4%
Purity (%) ([2]; BHT 1.0% (w/w), 4 weeks): 98.4%
Purity (%) ([2]; BHT 1.0% (w/w), 8 weeks): 98.3%
Purity after eight-weeks of storage ([2]; with various concentrations of BHT (concentration not given)): 98.3%
Stability (in words) ([4]; purified compounds without anti-oxidant): more thermally stable
Purity (%) ([4]; 5° C. (sealed), 00 weeks after synthesis): 98.6%
Purity (%) ([4]; 5° C. (sealed), 02 weeks after synthesis): 97.8%
Purity (%) ([4]; 5° C. (sealed), 04 weeks after synthesis): 97.0%
Purity (%) ([4]; 5° C. (sealed), 08 weeks after synthesis): 96.7%
Purity (%) ([4]; 5° C. (sealed), 12 weeks after synthesis): 96.3%
Purity (%) ([4]; 25° C. (sealed), 00 weeks after synthesis): 98.7%
Purity (%) ([4]; 25° C. (sealed), 02 weeks after synthesis): 97.6%
Purity (%) ([4]; 25° C. (sealed), 04 weeks after synthesis): 96.9%
Purity (%) ([4]; 25° C. (sealed), 08 weeks after synthesis): 96.7%
Purity (%) ([4]; 25° C. (sealed), 12 weeks after synthesis): 94.1%
Purity (%) ([4]; 25° C. (unsealed), 00 weeks after synthesis): 98.4%
Purity (%) ([4]; 25° C. (unsealed), 02 weeks after synthesis): 97.1%
Purity (%) ([4]; 25° C. (unsealed), 04 weeks after synthesis): 96.7%
Purity (%) ([4]; 25° C. (unsealed), 08 weeks after synthesis): 95.2%
Purity (%) ([4]; 25° C. (unsealed), 12 weeks after synthesis): 93.6%
Purity (%) ([4]; 40° C. (sealed), 00 weeks after synthesis): 98.6%
Purity (%) ([4]; 40° C. (sealed), 02 weeks after synthesis): 96.7%
Purity (%) ([4]; 40° C. (sealed), 04 weeks after synthesis): 96.3%
Purity (%) ([4]; 40° C. (sealed), 08 weeks after synthesis): 94.7%
Purity (%) ([4]; 40° C. (sealed), 12 weeks after synthesis): 93.5%
SMILES: COC1CC(C[C@H](C)[C@@H]2CC(=O)[C@H](C)/C=C(\C)C(O)[C@@H](OC)C(=O)[C@H](C)C[C@H](C)/C=C/C=C/C=C(\C)[C@@H](OC)C[C@@H]3CC[C@@H](C)[C@@](O)(O3)C(=O)C(=O)N3CCCC[C@H]3C(=O)O2)CCC1OC1CCOC1 (some centres unmarked) [Merilimus-1, 42-O-(tetrahydrofuran-3-yl) rapamycin]
Leucocyte count (rabbit blood [1]; [8]): 7.3 Thousand/cmm and 6.8 Thousand/cmm and 7.4 Thousand/cmm
Platelet count (rabbit blood [1]; [8]): 4.9 lakhs/cmm and 4.6 lakhs/cmm and 4.5 lakhs/cmm
Toxic effect on cells (in words) [3]: did not reveal any toxic effect on cells
Haemolytic Index (rabbit blood [5]; individual test extracts 1-3, rabbit blood, incubated 4 hrs, = Haemoglobin released/Haemoglobin present × 100): 1.4 and 1.7 and 1.9
Haemolytic Index, Mean ± S. D. (rabbit blood [5]): 1.7 ± 0.02
Haemolytic Index, Mean ± S. D. (rabbit blood [5]; listed as 42-O-(tetrahydrofuran-3-yl) rapamycin): 1.7
Haemolytic nature (in words) (rabbit blood [5]; on the basis of haemolytic index): non-haemolytic
Growth suppression of smooth muscle cells (in words) [6]: more effectively inhibited growth of smooth muscle cells than rapamycin
Growth suppression of smooth muscle cells (in words) [7]: more effectively inhibited growth of smooth muscle cells than rapamycin
